The text below walks through data of ChEMBL document CHEMBL4152336, “Optimization of the first small-molecule relaxin/insulin-like family peptide receptor (RXFP1) agonists: Activation results in an antifibrotic gene expression profile” (Eur J Med Chem, 2018).

Each structure is given as a SMILES string. pEC50: −log10 of the molar value. The source made the active and inactive calls. The rule behind the calls is not given here. Bounds are passed on as bounds.

For one data set, the target named is T1, Relaxin receptor 1 (Homo sapiens, UniProt Q9HBX9).
T1 sequence (Q9HBX9 whole entry): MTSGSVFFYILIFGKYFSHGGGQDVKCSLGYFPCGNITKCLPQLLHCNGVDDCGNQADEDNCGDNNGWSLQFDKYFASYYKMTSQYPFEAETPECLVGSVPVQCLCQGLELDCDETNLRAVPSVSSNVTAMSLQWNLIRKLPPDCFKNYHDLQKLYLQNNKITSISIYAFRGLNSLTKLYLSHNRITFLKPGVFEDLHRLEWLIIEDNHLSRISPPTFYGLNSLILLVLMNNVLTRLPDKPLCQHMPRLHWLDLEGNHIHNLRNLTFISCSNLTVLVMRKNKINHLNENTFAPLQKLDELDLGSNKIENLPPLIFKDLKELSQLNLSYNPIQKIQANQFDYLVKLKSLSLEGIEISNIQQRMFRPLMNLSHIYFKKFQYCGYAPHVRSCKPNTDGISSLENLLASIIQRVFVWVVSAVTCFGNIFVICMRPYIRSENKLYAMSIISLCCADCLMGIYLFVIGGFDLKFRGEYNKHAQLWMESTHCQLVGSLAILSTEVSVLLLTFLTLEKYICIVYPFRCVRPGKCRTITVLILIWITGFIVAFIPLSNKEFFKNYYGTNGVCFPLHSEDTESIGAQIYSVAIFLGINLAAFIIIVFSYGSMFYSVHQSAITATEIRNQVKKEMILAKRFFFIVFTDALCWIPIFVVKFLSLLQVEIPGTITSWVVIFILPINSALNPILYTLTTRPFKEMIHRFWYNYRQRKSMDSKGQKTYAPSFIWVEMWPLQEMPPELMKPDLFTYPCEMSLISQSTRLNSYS
The format is functional, cell-based, HEK293. Particulars: for pEC50: read-out: EC50; for EC50: hek293.

The target of data set [1] is T2, Relaxin receptor 1 (Homo sapiens) (UniProt Q9HBX9).
T2 sequence (whole entry): T1 sequence (Q9HBX9 whole entry)
It is filed as functional, cell-based. Conditions: HEK293.

A short description of data set [2]: Aqueous kinetic solubility of the compound in PBS by shake-flask method. It is filed as physicochemical. Conditions: PBS; read-out: Kinetic_solubility.
The conditions of data set [3]: rat, microsomes.
Description: Half life in rat liver microsomes

For orientation: pEC50 means the negative decadic logarithm of the EC50, by convention in mol/L. Take `CCOc1ccccc1C(=O)Nc1ncccc1C(=O)Nc1cccc(S(=O)(=O)C(F)(F)F)c1`: the pEC50 at Relaxin receptor 1 was 5.78. In data set [1], this compound yielded an Efficacy of 98%. Also, in data set [2], the solubility kinetic is less than 1000 µM. The same compound returned a t1/2 in data set [3] of 19.85 min.
For the compound `CCOc1ccccc1C(=O)Nc1ccncc1C(=O)Nc1cccc(S(=O)(=O)C(F)(F)F)c1`, the pEC50 on Relaxin receptor 1 was 6.13. The compound further gave an Efficacy in data set [1] of 97%. Moreover, in data set [3], the t1/2 is more than 30 min.
For `COc1ccccc1C(=O)Nc1ccccc1C(=O)Nc1cccc(S(=O)(=O)C(F)(F)F)c1` the same measures were 6.73, 99% and more than 30 min.
Take `CCOc1ccccc1C(=O)Nc1cccnc1C(=O)Nc1cccc(S(=O)(=O)C(F)(F)F)c1`: the negative-log EC50 (pEC50) at Relaxin receptor 1 was 5.33. Moreover, in data set [1], the Efficacy stood at 73%. Also, the solubility kinetic in data set [2] was less than 1000 µM. The compound further displayed a t1/2 in data set [3] of more than 30 min.
For `CCOc1ccccc1C(=O)Nc1cnccc1C(=O)Nc1cccc(S(=O)(=O)C(F)(F)F)c1`, the pEC50 on Relaxin receptor 1 was 5.53. The compound further registered an Efficacy in data set [1] of 99%. Moreover, the solubility kinetic in data set [2] was less than 1000 µM.
For the compound `COCCOc1ccccc1C(=O)Nc1ccccc1C(=O)Nc1cccc(C(F)(F)F)c1`, at Relaxin receptor 1, the pEC50 is 6.13. The compound also showed an Efficacy in data set [1] of 98%.
For `O=C(Nc1cccc(Cl)c1)c1ccccc1NC(=O)C1CCCCC1` the same measures were 5.48 and 89%.
As for `O=C(Nc1cccc(S(=O)(=O)C(F)(F)F)c1)c1ccccc1NC(=O)c1ccccc1OCC(F)(F)F`, at Relaxin receptor 1, the pEC50 was 7.17. Moreover, the Efficacy in data set [1] was determined as 97%. This compound registered a t1/2 in data set [3] of more than 30 min.
With `O=C(Nc1ccccc1C(=O)Nc1cccc(C(F)(F)F)c1)c1cccnc1`, the pEC50 at Relaxin receptor 1 is 5.23. The Efficacy in data set [1] stood at 95%.
As to `O=C(Nc1ccc(C(F)(F)F)cc1)c1ccccc1NC(=O)C1CCCCC1`, at Relaxin receptor 1, the pEC50 is 4.03. Besides, in data set [1], the Efficacy is 46%.
For the compound `COc1ccccc1C(=O)N(C)c1ccccc1C(=O)Nc1cccc(C(F)(F)F)c1`, at Relaxin receptor 1, the EC50 entry is “Not Active”. Also, the Efficacy entry in data set [1] is “inactive”.
With `CCOc1ccccc1C(=O)Nc1ccccc1C(=O)Nc1cccc(S(=O)(=O)C(F)(F)F)c1`, the t1/2 in data set [3] is more than 30 min.
`O=C(Nc1cccc(C(F)(F)F)c1)c1ccccc1NC(=O)C1CCCC1`: at Relaxin receptor 1, the pEC50 was 5.63. In data set [1], this compound gave an Efficacy of 88%.
On to `O=C(Nc1ccccc1)c1ccccc1NC(=O)C1CCCCC1`, for which, on Relaxin receptor 1, the pEC50 was 4.03. Further, in data set [1], the Efficacy was determined as 57%.
Consider `Cc1ccccc1NC(=O)c1ccccc1NC(=O)C1CCCCC1`, for which the EC50 result on Relaxin receptor 1 was “Not Active”. In addition, in data set [1], the Efficacy result is “inactive”.
For `O=C(Nc1ccccc1C(=O)Nc1cccc(C(F)(F)F)c1)c1ccccc1Cl`, the pEC50 on Relaxin receptor 1 is 5.43. The Efficacy in data set [1] is 92%.
The like results for `O=C(Nc1cccc(C(F)(F)F)c1)c1ccccc1NC(=O)C1CCC1` were, in that order, 5.53 and 75%.
`COc1ccccc1C(=O)Nc1ccccc1C(=O)Nc1cccc(C(F)(F)F)c1`: the pEC50 on Relaxin receptor 1 was 6.48. In data set [1], this compound displayed an Efficacy of 99%.
The like results for `COc1cccc(C(=O)Nc2ccccc2C(=O)Nc2cccc(C(F)(F)F)c2)c1` were, in that order, 5.73 and 94%.
For `O=C(Nc1cccc(S(=O)(=O)C(F)(F)F)c1)c1ccccc1NC(=O)C1CCCCC1` the same measures were 5.97 and 87%.
For `O=C(NCc1ccco1)c1ccccc1NC(=O)c1ccccc1NC(=O)C1CCCCC1`, on Relaxin receptor 1, the negative logarithm of the EC50 (pEC50) is 5.03. In data set [1], this compound registered an Efficacy of 45%.
For `CCOc1ccccc1C(=O)Nc1sccc1C(=O)Nc1cccc(S(=O)(=O)C(F)(F)F)c1` the same measures were 5.63 and 95%.
For `CCCCC(=O)Nc1ccccc1C(=O)Nc1cccc(C(F)(F)F)c1` the same measures were 5.28 and 94%.
On to `CN(C)CCOc1ccccc1C(=O)Nc1ccccc1C(=O)Nc1cccc(C(F)(F)F)c1`, for which the pEC50 at Relaxin receptor 1 was 5.43. For the same compound, in data set [1], the Efficacy came out at 92%.
